The record followed here is paper PMC11246588, “New 1,2,4-oxadiazole derivatives as potential multifunctional agents for the treatment of Alzheimer’s disease: design, synthesis, and biological evaluation” (BMC Chemistry, 2024).

The IC50 is the concentration at which inhibition is half-maximal.

One experiment addresses T1, MAO-B (Homo sapiens, UniProt P27338).
T1 construct: purchased Sigma M7441
T1 sequence (P27338 1-520): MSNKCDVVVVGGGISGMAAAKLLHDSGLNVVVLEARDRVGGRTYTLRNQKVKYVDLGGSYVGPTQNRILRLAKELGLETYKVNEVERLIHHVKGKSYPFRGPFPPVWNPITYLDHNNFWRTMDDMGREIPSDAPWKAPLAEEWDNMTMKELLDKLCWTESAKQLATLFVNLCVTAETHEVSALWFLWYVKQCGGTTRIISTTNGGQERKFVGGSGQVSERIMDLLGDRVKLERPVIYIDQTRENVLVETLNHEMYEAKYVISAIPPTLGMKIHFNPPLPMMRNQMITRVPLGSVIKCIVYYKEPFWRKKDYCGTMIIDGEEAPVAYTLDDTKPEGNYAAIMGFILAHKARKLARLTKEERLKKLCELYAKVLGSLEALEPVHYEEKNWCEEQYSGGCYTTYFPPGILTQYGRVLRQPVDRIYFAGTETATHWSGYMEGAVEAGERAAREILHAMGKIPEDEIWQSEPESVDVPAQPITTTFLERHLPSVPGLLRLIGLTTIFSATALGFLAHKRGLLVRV
The experiment can be described thus: MAO-B inhibitory assay. Type of experiment: biochemical.

The next experiment has as its target T2, AChE (Homo sapiens, UniProt P22303).
T2 construct: from tissue; host or cells: brain homogenate supernatant
The experiment can be described thus: AChE inhibitory assay (Ellman-type, brain homogenate supernatant). Type of experiment: biochemical. Particulars: for AChE-IC50 (µM ± SD) / IC50: means of three replicates, N.A. means no activity; for IC50: read-out: AChE-IC50 (µM ± SD); for AChE Selectivity Index: IC50 of BuChE/ IC50 of AChE. The method, then:
The results, which are shown in Table 1, are graphically represented in Figs. 2 and 3. […]
3.1. AChE and BuChE inhibitory assays
In ELISA plate (Bio Tec. USA), 150 μL of phosphate buffer was directly added in ELISA blank well and 130 μL of phosphate buffer was added in ELISA activity wells. To the blank and activity wells, 5 μL of substrate ACTI was added, then 20 μL brain homogenate supernatant was added in activity ELISA wells only. The plate was preincubated for 15 min at 37 °C before the addition of the second substrate (DTNB). DTNB (60 μL) was added in both the blank and activity wells. Absorbance was […]
Values obtained were analyzed and blank reading was subtracted from sample readings. The AChE and BuChE inhibition activity of tested compound was expressed as IC 50. IC50 value is the inhibitory concentration at which 50% of AChE or BuChE is repressed. […]
sample concentration using linear regression equations.
(DTNB colorimetry detects thiols as they appear.)

In experiment [1] the test system is human red blood cells (HRBCs). The experiment can be described thus: Anti-hemolytic effect (hypotonic solution-induced human erythrocyte hemolysis). It counts as cell-based. Particulars: read-out: Hemolysis-IC50 (µM ± SD). As for the experimental part:
The inhibition of human red blood cells (HRBCs) membrane lysis under […] conditions was taken as a measure of the mechanism of anti-hemolytic activity of the synthesized 1,2,4-oxadiazole-based derivatives. […]
The test carried out triplicate. […]
It was calculated by interpolation from the graph of inhibition percentage against sample concentration using linear regression equations.
The Inhibition percentage was calculated. IC50 value is the […]
centrifugation each time for 10 min at 3000 ×g. […]
solution-induced human erythrocyte hemolysis. […]
consisted of 0.5 mL of RBCs mixed with hypotonic-buffered saline solution alone. The mixtures were incubated for 10 min at room temperature and centrifuged for 10 min at 3000 ×g and the absorbance of the supernatant was measured at 540 nm using optima spectrophotometer. The test carried out triplicate. Inhibition of hemolysis percentages were calculated. Inhibition of hemolysis activity was expressed as IC50.

Experiment [2] can be described thus: DPPH radical scavenging activity. Conditions: means of three replicates; N.A. means no activity; read-out: DPPH-IC50 (µM ± SD). (In general: DPPH is a stable violet radical that fades when it is reduced.)
The next experiment has as its target T3, MAO-A (Homo sapiens, UniProt P21397).
T3 sequence (P21397 1-527): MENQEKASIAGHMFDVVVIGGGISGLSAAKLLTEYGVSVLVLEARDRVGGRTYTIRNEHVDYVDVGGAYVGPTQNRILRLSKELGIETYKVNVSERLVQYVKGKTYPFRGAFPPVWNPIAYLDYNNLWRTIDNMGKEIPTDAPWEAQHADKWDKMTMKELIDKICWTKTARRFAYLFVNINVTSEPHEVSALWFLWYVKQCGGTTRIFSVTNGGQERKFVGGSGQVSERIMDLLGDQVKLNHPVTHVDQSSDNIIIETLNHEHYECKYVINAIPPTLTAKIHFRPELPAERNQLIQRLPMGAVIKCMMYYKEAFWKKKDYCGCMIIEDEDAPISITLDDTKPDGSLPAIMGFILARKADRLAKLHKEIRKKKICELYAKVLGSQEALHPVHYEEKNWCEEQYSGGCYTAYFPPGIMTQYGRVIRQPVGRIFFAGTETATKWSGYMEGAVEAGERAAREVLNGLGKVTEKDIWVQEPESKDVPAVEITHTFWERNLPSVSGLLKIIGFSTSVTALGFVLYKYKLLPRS
The experiment can be described thus: biochemical.

The mark [3] stands for this setting: inhibition of induced HRBC membrane lysis, means of three replicates.

Where a name gives a salt, the structure may show the parent alone. Read-outs that look alike come from different tables or passages of the source.

T2 sequence (P22303 32-614): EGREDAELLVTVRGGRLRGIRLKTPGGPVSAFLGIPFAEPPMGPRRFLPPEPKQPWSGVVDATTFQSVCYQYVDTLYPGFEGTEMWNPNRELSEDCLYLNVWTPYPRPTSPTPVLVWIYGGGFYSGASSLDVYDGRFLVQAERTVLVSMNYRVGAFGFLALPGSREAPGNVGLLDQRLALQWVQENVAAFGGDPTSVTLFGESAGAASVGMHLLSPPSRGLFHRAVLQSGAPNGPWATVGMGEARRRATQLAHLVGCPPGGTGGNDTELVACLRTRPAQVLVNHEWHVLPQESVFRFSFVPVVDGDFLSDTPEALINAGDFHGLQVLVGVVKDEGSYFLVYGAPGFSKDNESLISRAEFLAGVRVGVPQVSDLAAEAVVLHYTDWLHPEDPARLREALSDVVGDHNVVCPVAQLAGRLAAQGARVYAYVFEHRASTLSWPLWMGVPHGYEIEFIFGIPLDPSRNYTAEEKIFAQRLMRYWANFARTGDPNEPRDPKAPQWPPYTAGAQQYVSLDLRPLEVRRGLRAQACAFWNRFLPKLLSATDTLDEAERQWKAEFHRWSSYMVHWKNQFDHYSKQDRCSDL
Description for MAO-A: The MAO-B and MAO-A inhibitory potentials of all the synthesized 1,2,4-oxadiazole-based derivatives were evaluated. Biperiden and methylene blue (methylthioninium chloride) were used as the reference standards.
In test tube, 150 µL of 20 nM of MAO-A or MAO-B (M7441, Sigma), 150 µL of tested compound serial dilutions (0, 0.1,
0.25, 0.5,1 and 2 mg/mL), 133 µL potassium phosphate buffer and 667 µL of or benzylamine (5µM) were mixed well.
absorbance was measured at 250 nm against air after 30 s and 90 s. The Inhibition percentage was calculated.
inhibitory concentration at which 50% of MAO -A or MAO-B is repressed.

Regarding `OC(CCN1CCCCC1)(c1ccccc1)C1CC2C=CC1C2` (stereo not shown) [Biperiden HCl, reference compound], the IC50 on MAO-B (means of three replicates, N.A. means no activity, read-out: MAO-B-IC50 (µM ± SD)) amounted to 238 ± 16.3 µM.

As for `NNC(=O)COc1ccccc1-c1nc(-c2ccccc2)no1` [Compound 1a], on AChE, the “AChE-IC50 (µM ± SD)” value was “nonexistent efficacy”. Moreover, the IC50 against MAO-B was found to be 359 ± 23.4 µM; in experiment [1] (setting [3]), 1620 ± 57.8 µM; in experiment [2], 1220 ± 51.3 µM; against MAO-A, 47.2 ± 8.1 µM.

With `NNC(=O)COc1ccccc1-c1nc(Cc2ccccc2)no1` [Compound 1b], the IC50 at AChE is 0.031 ± 0.0024 µM; at MAO-B, 535 ± 41.5 µM; in experiment [1] (setting [3]) it was 1190 ± 78.3 µM; in experiment [2], 1280 ± 42.8 µM; at MAO-A, 82.5 ± 8.7 µM.

With `NNC(=O)COc1ccccc1-c1nc(-c2ccc(C(F)(F)F)cc2)no1` [Compound 1c], the “AChE-IC50 (µM ± SD)” value on AChE was “nonexistent efficacy”. The IC50 against MAO-B was 397 ± 19.6 µM; in experiment [1] (setting [3]), 657 ± 33.1 µM; in experiment [2] it was 735 ± 12.8 µM; against MAO-A, 147 ± 16.9 µM.

As to `O=C(COc1ccccc1-c1nc(-c2ccccc2)no1)N/N=C\c1ccccc1[N+](=O)[O-]` [Compound 2a, (E/Z)-N’-(2-Nitrobenzylidene)-2-(2-(3-phenyl-1,2,4-oxadiazol-5-yl)phenoxy)acetohydrazide], the figures for the half-maximal inhibitory concentration (IC50) (at AChE; in experiment [1] (setting [3]); in experiment [2]) were 0.0339 ± 0.0029 µM, 1790 ± 63.1 µM and 1310 ± 31.5 µM, respectively.

In the case of `O=C(COc1ccccc1-c1nc(Cc2ccccc2)no1)N/N=C\c1ccccc1[N+](=O)[O-]` [Compound 2b, (E/Z)-2-(2-(3-Benzyl-1,2,4-oxadiazol-5-yl)phenoxy)-N’-(2-nitrobenzylidene)acetohydrazide], the “AChE Selectivity Index” value at AChE is 36,571. Moreover, the IC50 came out at 0.00098 ± 1e-06 µM at AChE; 346 ± 14.3 µM at MAO-B; 4100 ± 114 µM in experiment [1] (setting [3]); 991 ± 11.4 µM in experiment [2]; 204 ± 17.9 µM on MAO-A.

For the compound `O=C(COc1ccccc1-c1nc(-c2ccc(C(F)(F)F)cc2)no1)N/N=C\c1ccccc1[N+](=O)[O-]` [Compound 2c, (E/Z)-N’-(2-Nitrobenzylidene)-2-(2-(3-(4-(trifluoromethyl)phenyl)-1,2,4-oxadiazol-5-yl)phenoxy) acetohydrazide], the “AChE Selectivity Index” value on AChE is 3,100. In addition, the IC50 at AChE was 0.0127 ± 0.00102 µM; on MAO-B, 266 ± 13.4 µM; in experiment [1] (setting [3]) it was 4340 ± 126 µM; in experiment [2] it was 464 ± 31.5 µM.

For the compound `O=C(COc1ccccc1-c1nc(-c2ccccc2)no1)N/N=C\c1cnn(-c2ccccc2)n1` [Compound 3a, (E/Z)-2-(2-(3-Phenyl-1,2,4-oxadiazol-5-yl)phenoxy)-N’-((2-phenyl-2 H-1,2,3-triazol-4-yl)methylene) acetohydrazide], the “AChE-IC50 (µM ± SD)” value on AChE was “nonexistent efficacy”. Further, the values for the IC50 (in experiment [1] (setting [3]); against MAO-A) were 622 ± 23.4 µM and 85.2 ± 5.9 µM, respectively.

Take `O=C(COc1ccccc1-c1nc(Cc2ccccc2)no1)N/N=C\c1cnn(-c2ccccc2)n1` [Compound 3b, (E/Z)-2-(2-(3-Benzyl-1,2,4-oxadiazol-5-yl)phenoxy)-N’-((2-phenyl-2 H-1,2,3-triazol-4-yl)methylene) acetohydrazide]: the “AChE Selectivity Index” value at AChE worked out at 735. Further, the IC50 on AChE is 0.0233 ± 0.00069 µM; against MAO-B it was 140 ± 8.7 µM; in experiment [1] (setting [3]), 457 ± 19.6 µM; in experiment [2], 537 ± 19.3 µM.

As to `O=C(COc1ccccc1-c1nc(-c2ccc(C(F)(F)F)cc2)no1)N/N=C\c1cnn(-c2ccccc2)n1` [Compound 3c, (E/Z)-N’-((2-Phenyl-2 H-1,2,3-triazol-4-yl)methylene)-2-(2-(3-(4-(trifluoromethyl)phenyl)-1,2,4-oxadiazol-5-yl)phenoxy)acetohydrazide], on AChE, the “AChE-IC50 (µM ± SD)” value is given as “nonexistent efficacy”. Further, the values for the IC50 (in experiment [1] (setting [3]); in experiment [2]; against MAO-A) were 661 ± 23.8 µM, 582 ± 42.9 µM and 115 ± 19.5 µM, respectively.

Regarding `O=C(COc1ccccc1-c1nc(-c2ccccc2)no1)NN1C(=O)c2ccccc2C1=O` [Compound 4a, N-(1,3-Dioxoisoindolin-2-yl)-2-(2-(3-phenyl-1,2,4-oxadiazol-5-yl)phenoxy)acetamide], the “AChE Selectivity Index” value at AChE is 1,010. For the same compound, the IC50 on AChE is 0.0328 ± 0.0011 µM; at MAO-B, 394 ± 16.3 µM; in experiment [1] (setting [3]) it was 522 ± 15.9 µM; in experiment [2], 1660 ± 62.3 µM.

Turning to `O=C(COc1ccccc1-c1nc(Cc2ccccc2)no1)NN1C(=O)c2ccccc2C1=O` [Compound 4b, 2-(2-(3-Benzyl-1,2,4-oxadiazol-5-yl)phenoxy)-N-(1,3-dioxoisoindolin-2-yl)acetamide], the IC50 came out at 0.0293 ± 0.0013 µM at AChE; 713 ± 22.3 µM against MAO-B; 1790 ± 89.3 µM in experiment [1] (setting [3]); 2661 ± 26.3 µM in experiment [2]; 130 ± 16.9 µM against MAO-A.

Turning to `O=C(COc1ccccc1-c1nc(-c2ccc(C(F)(F)F)cc2)no1)NN1C(=O)c2ccccc2C1=O` [Compound 4c, N-(1,3-Dioxoisoindolin-2-yl)-2-(2-(3-(4-(trifluoromethyl)phenyl)-1,2,4-oxadiazol-5-yl)phenoxy)acetamide], at AChE, the “AChE Selectivity Index” value turned out to be 673. Besides, the IC50 at AChE came to 0.0377 ± 0.0027 µM; at MAO-B, 117 ± 9.8 µM; in experiment [1] (setting [3]) it was 1040 ± 88.9 µM; at MAO-A, 144 ± 22.4 µM.

For the compound `O=C(COc1ccccc1-c1nc(-c2ccccc2)no1)NNC(=O)c1ccc2ccccc2n1` [Compound 5a, N’-(2-(2-(3-Phenyl-1,2,4-oxadiazol-5-yl)phenoxy)acetyl)quinoline-2-carbohydrazide], the IC50 came out at 0.0475 ± 0.0028 µM on AChE, 274 ± 21.1 µM against MAO-B, 2020 ± 111 µM in experiment [1] (setting [3]) and 885 ± 22.9 µM in experiment [2].

Consider `O=C(COc1ccccc1-c1nc(Cc2ccccc2)no1)NNC(=O)c1ccc2ccccc2n1` [Compound 5b, N’-(2-(2-(3-Benzyl-1,2,4-oxadiazol-5-yl)phenoxy)acetyl)quinoline-2-carbohydrazide], for which, on AChE, the “AChE Selectivity Index” value was 627 and the IC50 came out at 0.0337 ± 0.00089 µM. The IC50 in experiment [1] (setting [3]) was 3560 ± 125 µM.

In the case of `O=C(COc1ccccc1-c1nc(-c2ccc(C(F)(F)F)cc2)no1)NNC(=O)c1ccc2ccccc2n1` [Compound 5c, N’-(2-(2-(3-(4-(Trifluoromethyl)phenyl)-1,2,4-oxadiazol-5-yl)phenoxy)acetyl)quinoline-2-carbohydrazide], the “AChE Selectivity Index” value at AChE is reported as 894. The IC50 is 0.0792 ± 0.0061 µM at AChE, 521 ± 11.9 µM in experiment [1] (setting [3]) and 1140 ± 68.9 µM in experiment [2].

Take `O=C(O)Cc1ccccc1Nc1c(Cl)cccc1Cl` [Diclofenac, reference compound]: the IC50 in experiment [1] is 1120 ± 12.6 µM.

Turning to `O=c1c(O)c(-c2ccc(O)c(O)c2)oc2cc(O)cc(O)c12` [Quercetin, reference compound], the IC50 in experiment [2] amounted to 491 ± 14.8 µM.
